Measurements taken from patent US7939499B2, “Method for increasing cardiac mass and performance” (Trustees of Dartmouth College, priority 2005, dated 2011).
Marks after values point to notes of the source that are not given here. Where no end group is shown, it is not given here.

Assays:
Format in all cases: in vivo, mouse
[1] = tested on: ANF, βMHC and skeletal α-actin gene expression; assay: Expression of myocyte hypertrophy markers; details: 6 weeks after PR39 expression induction (not at 3 weeks)
Description: (§1) To gain further insight into the nature of the hypertrophy process, expression of myocyte hypertrophy markers was examined. […] These findings are consistent with an increase in endothelial cell mass, […] an increase in cardiac size, largely driven by myocyte hypertrophy accompanied by an induction of a typical hypertrophic response.

[2] = tested on: transgenic mice with myocardial-specific expression of PR39; assay: Heart size, myocardial mass and myocyte cross-sectional area after induction of PR39 expression
Description: (§2) To monitor PR39 expression, β-galactosidase was expressed bicistronically.
Six weeks after induction of PR39 expression, a large increase in the heart size was observed that was attributable to increased ventricular wall thickness and a mild increase in the left ventricle chamber size.
(§3) Full-length porcine PR39 cDNA was inserted into a tetracycline-responsive vector system and a tetracycline transactivator was placed under transcriptional control of an α-myosin heavy chain promoter. The resulting tetracycline-responsive system was microinjected into fertilized mouse eggs. PCR analysis of genomic DNA from mouse tail tissue confirmed integration into the mouse genome. Independent transgenic lines were established and used for the analysis disclosed herein.

[3] = tested on: endothelial cells and cardiac myocytes; assay: Immunocytochemical staining with anti-Ki67 antibody (proliferation); details: after induction of PR39 expression
Description: as §1

[4] = tested on: transgenic mice with myocardial-specific expression of PR39; assay: Endothelial cell mass (I131-labeled anti-PECAM antibody perfusion) and direct capillary counting in PR39 transgenic mice
Description: as §2
Three weeks after induction of PR39 expression in 6-8 week-old mice, a significant increase in the endothelial cell mass was observed as determined by in vivo perfusion with an I^131-labeled anti-PECAM antibody and direct capillary counting (Table 1).
as §3

[5] = tested on: transgenic mice with myocardial-specific expression of PR39; assay: Echocardiographic and pressure-volume loop analysis of myocardial function
Procedure: as §2
To determine whether this endothelial-driven myocardial hypertrophy affected cardiac performance, echocardiographic and pressure-volume loop analysis of myocardial function was performed following induction of PR39 expression. In agreement with morphologic observations, heart expressing PR39 had somewhat larger left ventricular end-diastolic volume and end-diastolic diameter (Table 2). There was a significant enhancement of systolic performance as indicated by decreased left ventricle end-systolic volume and increases in the […], +dP/dT, maximal-generated left ventricle pressure and cardiac output (Table 2). Unexpectedly, there was also a significant improvement in diastolic function as indicated by reduced tau and −dP/dt (Table 2).
To evaluate the robustness of the observed increase in myocardial size and functional improvement, PR39 expression was shut off six weeks after its induction and the mice were re-examined three weeks later. Both the increase in the myocardial mass and improvements in the systolic and diastolic function were maintained at that time.
as §3

[6] = six weeks after induction of PR39 expression
[7] = six weeks following induction of PR39 expression
[8] = six weeks induction of PR39 expression followed by 3 weeks repression

PR39: Angiogenic proline/arginine-rich peptide; full-length porcine PR39 cDNA expressed myocardial-specifically in tetracycline-regulated transgenic mice (mature peptide SEQ ID NO:3) (RRRPRPPYLPRPRPPPFFPPRLPPRIPPGFPPRFPPRFP-NH2; listed as Sus scrofa)
ANF, βMHC and skeletal α-actin gene expression [1]: marked increase
Increase in myocardial mass ([2]; cardiac-specific overexpression of PR39): 50%
Heart size [2, 6]: 0.15±0.01 gram
Myocyte area increase (cross-sectional area of enzymatically dispersed cardiac myocytes) [2, 6]: 30%
Heart enlargement ([2]; six weeks after induction of PR39 expression, vs non-transgenic mice): 35%
Heart size after repression of PR39 expression ([2]; six weeks induction, then 3 weeks repression of PR39 expression): remained unchanged
Proliferation of endothelial cells between myocyte bundles (anti-Ki67) [3]: increased proliferation
Proliferation of cardiac myocytes (anti-Ki67) ([3]; multiple sections): no proliferation
Capillary density per gram of myocardial tissue [4, 6]: returned to values seen in control mice
Capillary Density (Capillary/50 μm^2) ([4]; three weeks after induction of PR39 expression in 6-8 week-old mice): 5.90 ± 0.12 Capillary/50 μm^2
Anti-PECAM (μg antibody/gram tissue) ([4]; three weeks after induction of PR39 expression in 6-8 week-old mice, endothelial cell mass): 0.52 ± 0.07 μg antibody/gram tissue
Increase in myocardial mass and improvements in systolic and diastolic function after shut-off ([5]; PR39 expression shut off six weeks after induction, re-examined three weeks later): maintained
Left Ventricle Mass [5, 7]: 74 ± 1.1^a mg
Left Ventricle internal dimension systolic [5, 7]: 2.28 ± 0.20^c mm
Cardiac output [5, 8]: 9046 ± 239^a μL/minute
Ejection fraction [5, 8]: 85.06 ± 0.76^a %
End diastolic pressure [5, 8]: 7.17 ± 0.17^a mmHg
End diastolic volume [5, 8]: 18.78 ± 0.31^a μL
End systolic pressure [5, 8]: 70.49 ± 0.99^b mmHg
End systolic volume [5, 8]: 3.26 ± 0.15^a μL
Maximum dP/dt [5, 8]: 8809 ± 167^a mmHg/second
Maximum pressure [5, 8]: 92.26 ± 0.54^a mmHg
Maximum volume [5, 8]: 20.15 ± 0.29^a μL
Minimum dP/dt [5, 8]: −7503 ± 123^a mmHg/second
Minimum pressure [5, 8]: 3.79 ± 0.15^a mmHg
Minimum volume [5, 8]: 2.86 ± 0.13^a μL
Stroke volume [5, 8]: 17.29 ± 0.32^a μL
Tau-w [5, 8]: 6.0 ± 0.1^a msec
